In US20240365774A1, “METHODS FOR CRYOPROTECTION AND LYOPROTECTION OF CELLS” (LONZA LTD, priority 2021, published 2024):
Entries after “also recorded” stand apart in the source; their conditions may differ.

Tested on: human mesenchymal stem cells (hMSCs)
Experiment: Freeze-thaw of hMSCs in CPA formulations at −80° C., viability by alamarBlue assay
Format: cell-based
Procedure: Adherent bone marrow derived human mesenchymal stem cells (hMSCs) (ATCC) were expanded to create a cell bank and stored in the vapor phase of liquid nitrogen in growth medium supplemented with 50% FBS and 7.5% DMSO at passage 3. Aliquots of those samples were warmed in a 37° C. water bath and cultured in MSCGM™ Mesenchymal Stem Cell Growth Medium BulletKit™ (containing FBS, Lonza); a commercially available medium that facilitates undifferentiated proliferation of hMSCs. The cells were kept in a humidified incubator at 37° C. and 5% CO2, whilst the growth medium was changed every 3-4 days. When hMSCs reached confluence of ˜90%, they were split and re-seeded at ˜5000 cells/cm^2 to facilitate further expansion. For experiments, cells between passages 4-8 were used. […]
For frozen samples, that is for samples after freezing and thawing, viability was measured by performing an alamarBlue™ assay (Invitrogen) according to the manufacturer's instructions. […] This reaction only takes place in cells that are metabolically active (viable), thus correlating measured fluorescence with viable cells. […] Assay reagent was then applied and, after a 4 h incubation, fluorescence was measured using a SpectraMax® iD3 with wavelengths of λex=550 nm and λem=590 nm. Background fluorescence values were subtracted from the measurements and compared to fluorescence values of untreated cells.

SMILES	viable cells after freeze-thaw (5% DMSO control)	viable cells after freeze-thaw (cryoprotection) (urea alone, 0.05, 0.1, 0.2 and 0.5 M, FIG. 1A)
C[S+](C)[O-] [DMSO, dimethyl sulfoxide, reference compound]	58%	
NC(N)=O [urea]		virtually no viable cells; also recorded: does not facilitate cryoprotection
